Laboratory results: article PMC5218480 (PLoS ONE, 2017)

Test system: MV-4-11 cells
Experiment: Gene expression microarray analysis (Affymetrix PrimeView) and GSEA
Type: cell-based, human
Design: RFU PODN (11730768_x_at) / Fold change /veh PODN (11730768_x_at) / RFU LINC00158 (11744669_a_at) / Fold change /veh LINC00158 (11744669_a_at) / RFU DUSP10 (11751237_a_at) / Fold change /veh DUSP10 (11751237_a_at) / RFU ID3 (11757404_x_at) / Fold change /veh ID3 (11757404_x_at) / RFU PLEKHG5 (11737974_s_at) / Fold change /veh PLEKHG5 (11737974_s_at) / RFU LRRC4B (11730491_at) / Fold change /veh LRRC4B (11730491_at) / RFU GIMAP4 (11747438_a_at) / Fold change /veh GIMAP4 (11747438_a_at) / RFU KRT8 (11758183_x_at) / Fold change /veh KRT8 (11758183_x_at) / RFU CNN1 (11734310_a_at) / Fold change /veh CNN1 (11734310_a_at) / RFU VPS37D (11726825_at) / Fold change /veh VPS37D (11726825_at) / RFU C10orf10 (11716522_x_at) / Fold change /veh C10orf10 (11716522_x_at) / RFU KIR2DL2 /// KIR2DL4 /// KIR2DL5A /// KIR2DL5B /// KIR2DS1 /// KIR2DS2 /// KIR2DS3 /// KIR2DS4 /// KIR3DL3 /// KIR3DL3 /// KIR3DS1 (11738374_at) / Fold change /veh KIR2DL2 /// KIR2DL4 /// KIR2DL5A /// KIR2DL5B /// KIR2DS1 /// KIR2DS2 /// KIR2DS3 /// KIR2DS4 /// KIR3DL3 /// KIR3DL3 /// KIR3DS1 (11738374_at) / RFU C1QL1 (11718748_at) / Fold change /veh C1QL1 (11718748_at) / RFU TMPRSS4 (11747572_a_at) / Fold change /veh TMPRSS4 (11747572_a_at) / RFU HAMP (11756126_x_at) / Fold change /veh HAMP (11756126_x_at) / RFU RNFT2 (11725882_a_at) / Fold change /veh RNFT2 (11725882_a_at) / RFU NR4A2 (11747474_a_at) / Fold change /veh NR4A2 (11747474_a_at) / RFU ABCC12 (11746883_a_at) / Fold change /veh ABCC12 (11746883_a_at) / RFU TMEM136 (11760407_x_at) / Fold change /veh TMEM136 (11760407_x_at) / RFU CLDN22 /// WWC2 (11732394_at) / Fold change /veh CLDN22 /// WWC2 (11732394_at) / RFU HLA-DPB1 (11760878_x_at) / Fold change /veh HLA-DPB1 (11760878_x_at) / RFU SPINT1 (11716480_a_at) / Fold change /veh SPINT1 (11716480_a_at) / RFU GAP43 (11754022_s_at) / Fold change /veh GAP43 (11754022_s_at) / RFU A4GNT (11735810_at) / Fold change /veh A4GNT (11735810_at) / RFU PRB3 (11715151_x_at) / Fold change /veh PRB3 (11715151_x_at) / RFU TUBB4B (11761932_at) / Fold change /veh TUBB4B (11761932_at) / RFU CAPN14 (11732068_a_at) / Fold change /veh CAPN14 (11732068_a_at) / RFU TMCC2 (11721928_a_at) / Fold change /veh TMCC2 (11721928_a_at) / RFU IRGQ (11745062_a_at) / Fold change /veh IRGQ (11745062_a_at) / RFU FAM174B (11720279_a_at) / Fold change /veh FAM174B (11720279_a_at) / RFU TMPRSS4 (11748680_a_at) / Fold change /veh TMPRSS4 (11748680_a_at) / RFU FAM212B (11763350_a_at) / Fold change /veh FAM212B (11763350_a_at) / RFU PLEKHG5 (11743358_a_at) / Fold change /veh PLEKHG5 (11743358_a_at) / RFU ZSCAN30 (11745921_a_at) / Fold change /veh ZSCAN30 (11745921_a_at) / RFU CMKLR1 (11741424_a_at) / Fold change /veh CMKLR1 (11741424_a_at) / RFU LOC101060620 /// MAPK8IP1 (11723275_at) / Fold change /veh LOC101060620 /// MAPK8IP1 (11723275_at) / RFU SPTSSB (11747773_x_at) / Fold change /veh SPTSSB (11747773_x_at) / RFU PRSS12 (11739890_at) / Fold change /veh PRSS12 (11739890_at) / RFU BIN1 (11741810_x_at) / Fold change /veh BIN1 (11741810_x_at) / RFU WNT11 (11732464_a_at) / Fold change /veh WNT11 (11732464_a_at) / RFU C10orf10 (11716521_a_at) / Fold change /veh C10orf10 (11716521_a_at) / RFU C5orf56 (11738089_at) / Fold change /veh C5orf56 (11738089_at) / RFU CYB561 (11721691_x_at) / Fold change /veh CYB561 (11721691_x_at) / RFU ANKRD19P (11752326_a_at) / Fold change /veh ANKRD19P (11752326_a_at) / RFU OR2T12 /// OR2T33 /// OR2T8 (11738714_s_at) / Fold change /veh OR2T12 /// OR2T33 /// OR2T8 (11738714_s_at) / RFU VCAN (11748164_a_at) / Fold change /veh VCAN (11748164_a_at) / RFU JSRP1 (11732532_at) / Fold change /veh JSRP1 (11732532_at) / RFU KRTAP10-11 (11738290_x_at) / Fold change /veh KRTAP10-11 (11738290_x_at) / RFU MYO3A (11730013_a_at) / Fold change /veh MYO3A (11730013_a_at) / RFU EBF3 (11725865_a_at) / Fold change /veh EBF3 (11725865_a_at) / RFU CAMK2N1 (11719241_x_at) / Fold change /veh CAMK2N1 (11719241_x_at) / RFU C5orf56 (11738088_a_at) / Fold change /veh C5orf56 (11738088_a_at) / RFU OLFML3 (11715873_a_at) / Fold change /veh OLFML3 (11715873_a_at) / RFU LOC100653217 /// NTM (11731650_a_at) / Fold change /veh LOC100653217 /// NTM (11731650_a_at) / RFU MAPK11 (11762145_a_at) / Fold change /veh MAPK11 (11762145_a_at) / RFU FIZ1 (11724087_x_at) / Fold change /veh FIZ1 (11724087_x_at) / RFU OASL (11726364_x_at) / Fold change /veh OASL (11726364_x_at) / RFU SOX15 (11748057_x_at) / Fold change /veh SOX15 (11748057_x_at) / RFU CD79A (11719716_a_at) / Fold change /veh CD79A (11719716_a_at) / RFU HIST1H1D (11736915_at) / Fold change /veh HIST1H1D (11736915_at) / RFU CASKIN2 (11723855_a_at) / Fold change /veh CASKIN2 (11723855_a_at) / RFU LOC730098 (11760151_x_at) / Fold change /veh LOC730098 (11760151_x_at) / RFU OR4N2 (11742367_at) / Fold change /veh OR4N2 (11742367_at) / RFU PRRT2 (11749266_a_at) / Fold change /veh PRRT2 (11749266_a_at) / RFU SNX32 (11753110_a_at) / Fold change /veh SNX32 (11753110_a_at) / RFU CDHR5 (11726645_a_at) / Fold change /veh CDHR5 (11726645_a_at) / RFU RCAN1 (11760418_a_at) / Fold change /veh RCAN1 (11760418_a_at) / RFU FAM167A (11723789_a_at) / Fold change /veh FAM167A (11723789_a_at) / RFU FAM26E (11764081_at) / Fold change /veh FAM26E (11764081_at) / RFU ISYNA1 (11749810_s_at) / Fold change /veh ISYNA1 (11749810_s_at) / RFU ACY1 (11761880_at) / Fold change /veh ACY1 (11761880_at) / RFU 11764098_at / Fold change /veh 11764098_at / RFU SAMD14 (11745864_x_at) / Fold change /veh SAMD14 (11745864_x_at) / RFU NPB (11741838_a_at) / Fold change /veh NPB (11741838_a_at) / RFU TMPRSS6 (11731388_a_at) / Fold change /veh TMPRSS6 (11731388_a_at) / RFU KRTAP10-2 (11738614_at) / Fold change /veh KRTAP10-2 (11738614_at) / RFU ARHGAP8 /// PRR5-ARHGAP8 (11727945_x_at) / Fold change /veh ARHGAP8 /// PRR5-ARHGAP8 (11727945_x_at) / RFU KRTAP5-7 /// NADSYN1 (11734609_at) / Fold change /veh KRTAP5-7 /// NADSYN1 (11734609_at) / RFU RASL12 (11751679_a_at) / Fold change /veh RASL12 (11751679_a_at) / RFU CDKN2B (11736163_a_at) / Fold change /veh CDKN2B (11736163_a_at) / RFU PRF1 (11729649_at) / Fold change /veh PRF1 (11729649_at) / RFU, ZNF638 /// ZNF638-IT1 / Fold change vs veh, ZNF638 /// ZNF638-IT1 / RFU, PANK3 / Fold change vs veh, PANK3 / RFU, SH3YL1 / Fold change vs veh, SH3YL1 / RFU, ZEB2 / Fold change vs veh, ZEB2 / RFU, NRIP1 / Fold change vs veh, NRIP1 / RFU, PTTG1IP / Fold change vs veh, PTTG1IP / RFU, CAPN2 / Fold change vs veh, CAPN2 / RFU, MED14 / Fold change vs veh, MED14 / RFU, SNORA58 / Fold change vs veh, SNORA58 / RFU, C1orf63 / Fold change vs veh, C1orf63 / RFU, LRRFIP1 / Fold change vs veh, LRRFIP1 / RFU, NDUFAF7 / Fold change vs veh, NDUFAF7 / RFU, SLC12A2 / Fold change vs veh, SLC12A2 / RFU, IBTK / Fold change vs veh, IBTK / RFU, ESF1 / Fold change vs veh, ESF1 / Fold change vs veh, TMEM50B / RFU, TAOK1 / Fold change vs veh, TAOK1 / RFU, ACBD3 / Fold change vs veh, ACBD3 / RFU, TMA16 / Fold change vs veh, TMA16 / RFU, RWDD3 / Fold change vs veh, RWDD3 / RFU, BCAT1 / Fold change vs veh, BCAT1 / RFU, EDEM3 / Fold change vs veh, EDEM3 / RFU, TMEM33 / Fold change vs veh, TMEM33 / RFU, WDR75 / Fold change vs veh, WDR75 / RFU, AHCTF1 / Fold change vs veh, AHCTF1 / RFU, TFRC / Fold change vs veh, TFRC / RFU, ZDHHC17 / Fold change vs veh, ZDHHC17 / RFU, NOM1 / Fold change vs veh, NOM1 / RFU, ARL8B / Fold change vs veh, ARL8B / RFU, ZBTB11 / Fold change vs veh, ZBTB11 / RFU, TAMM41 / Fold change vs veh, TAMM41 / RFU, KIAA1704 /// LOC100996395 / Fold change vs veh, KIAA1704 /// LOC100996395 / RFU, ING1 / Fold change vs veh, ING1 / RFU, TRMT61B / Fold change vs veh, TRMT61B / RFU, FUBP3 / Fold change vs veh, FUBP3 / RFU, TP53 / Fold change vs veh, TP53 / RFU, TNKS2 / Fold change vs veh, TNKS2 / RFU, ZFP14 / Fold change vs veh, ZFP14 / RFU, ACTR2 / Fold change vs veh, ACTR2 / RFU, PPP3R1 / Fold change vs veh, PPP3R1 / RFU, PIK3R1 / Fold change vs veh, PIK3R1 / RFU, HNRNPA1 / Fold change vs veh, HNRNPA1 / RFU, RNF170 / Fold change vs veh, RNF170 / RFU, ZNF28 / Fold change vs veh, ZNF28 / RFU, RNGTT / Fold change vs veh, RNGTT / RFU, OGT / Fold change vs veh, OGT / RFU, BRD1 / Fold change vs veh, BRD1 / RFU, MARS / Fold change vs veh, MARS / RFU, ZNF655 / Fold change vs veh, ZNF655 / RFU, FAHD1 / Fold change vs veh, FAHD1 / RFU, BDP1 / Fold change vs veh, BDP1 / RFU, LRRCC1 / Fold change vs veh, LRRCC1 / RFU, ARID1A / Fold change vs veh, ARID1A / RFU, ZNF146 / Fold change vs veh, ZNF146 / RFU, ZNF330 / Fold change vs veh, ZNF330 / RFU, GPN3 / Fold change vs veh, GPN3 / RFU, C9orf123 / Fold change vs veh, C9orf123 / RFU, N4BP2L2 / Fold change vs veh, N4BP2L2 / RFU, ARFIP1 / Fold change vs veh, ARFIP1 / RFU, FAM179B / Fold change vs veh, FAM179B / RFU, BCL10 / Fold change vs veh, BCL10 / RFU, UHRF1BP1L / Fold change vs veh, UHRF1BP1L / RFU, BET1 / Fold change vs veh, BET1 / RFU, CNOT2 / Fold change vs veh, CNOT2 / RFU, ZNF268 / Fold change vs veh, ZNF268 / Fold change vs veh, ZNF507 / RFU, DGCR2 / Fold change vs veh, DGCR2 / RFU, WDSUB1 / Fold change vs veh, WDSUB1 / Fold change vs veh, HSP90B1 /// MIR3652 / RFU, ADSS / Fold change vs veh, ADSS / RFU, GK / Fold change vs veh, GK / RFU, ZNF148 / Fold change vs veh, ZNF148 / RFU, TAF9 / Fold change vs veh, TAF9 / RFU, SLC1A5 / Fold change vs veh, SLC1A5 / RFU, SLMO2 / Fold change vs veh, SLMO2 / RFU, ABCC4 / Fold change vs veh, ABCC4 / RFU, LOC101060439 /// RAP1B / Fold change vs veh, LOC101060439 /// RAP1B / RFU, RFX7 / Fold change vs veh, RFX7 / RFU, GTPBP10 / Fold change vs veh, GTPBP10 / RFU, CNEP1R1 / Fold change vs veh, CNEP1R1 / RFU, BIVM-ERCC5 /// ERCC5 / Fold change vs veh, BIVM-ERCC5 /// ERCC5 / RFU, ILF3 / Fold change vs veh, ILF3 / RFU 11762660_at / Fold change /veh 11762660_at / RFU VCAN (11757783_s_at) / Fold change /veh VCAN (11757783_s_at) / RFU DDX43 (11728927_at) / Fold change /veh DDX43 (11728927_at) / RFU KRT8 (11758188_x_at) / Fold change /veh KRT8 (11758188_x_at) / RFU NKD1 (11759106_at) / Fold change /veh NKD1 (11759106_at) / RFU SRD5A1 (11742802_a_at) / Fold change /veh SRD5A1 (11742802_a_at) / RFU TPSAB1 /// TPSB2 (11721975_s_at) / Fold change /veh TPSAB1 /// TPSB2 (11721975_s_at) / RFU GSTM3 (11746129_a_at) / Fold change /veh GSTM3 (11746129_a_at) / RFU IL23R (11737362_x_at) / Fold change /veh IL23R (11737362_x_at) / RFU TMEM51 (11727254_a_at) / Fold change /veh TMEM51 (11727254_a_at) / RFU PIWIL2 (11732686_x_at) / Fold change /veh PIWIL2 (11732686_x_at) / RFU ORM1 (11744905_x_at) / Fold change /veh ORM1 (11744905_x_at) / RFU CCDC152 (11743942_at) / Fold change /veh CCDC152 (11743942_at) / RFU ECM1 (11717891_a_at) / Fold change /veh ECM1 (11717891_a_at) / RFU IL23R (11748794_a_at) / Fold change /veh IL23R (11748794_a_at) / RFU TNFAIP8L3 (11732012_x_at) / Fold change /veh TNFAIP8L3 (11732012_x_at) / RFU MBOAT4 (11741988_at) / Fold change /veh MBOAT4 (11741988_at) / RFU 11764193_at / Fold change /veh 11764193_at / RFU TMEM53 (11763286_at) / Fold change /veh TMEM53 (11763286_at) / RFU MAGEB2 (11727129_at) / Fold change /veh MAGEB2 (11727129_at) / RFU TMEM200A (11744735_a_at) / Fold change /veh TMEM200A (11744735_a_at) / RFU CCDC152 (11751479_a_at) / Fold change /veh CCDC152 (11751479_a_at) / RFU FAM211A (11726209_a_at) / Fold change /veh FAM211A (11726209_a_at) / RFU RGS16 (11746705_a_at) / Fold change /veh RGS16 (11746705_a_at) / RFU VCAN (11755009_s_at) / Fold change /veh VCAN (11755009_s_at) / RFU RHOB (11743442_s_at) / Fold change /veh RHOB (11743442_s_at) / RFU RGS16 (11720943_a_at) / Fold change /veh RGS16 (11720943_a_at) / RFU RGS16 (11720944_at) / Fold change /veh RGS16 (11720944_at) / RFU, VPS4B / Fold change vs veh, VPS4B / RFU, CREB1 / Fold change vs veh, CREB1 / RFU, DNAJC13 / Fold change vs veh, DNAJC13 / RFU, GNAQ / Fold change vs veh, GNAQ / RFU, CDK5R1 / Fold change vs veh, CDK5R1 / RFU, ZRANB3 / Fold change vs veh, ZRANB3 / RFU, CUL4A / Fold change vs veh, CUL4A / RFU, CCNY / Fold change vs veh, CCNY / RFU, UFL1 / Fold change vs veh, UFL1 / RFU, COG3 / Fold change vs veh, COG3 / RFU, DIAPH2 / Fold change vs veh, DIAPH2 / RFU, SKA2 / Fold change vs veh, SKA2 / RFU, AFF3 / Fold change vs veh, AFF3 / RFU, LMF1 / Fold change vs veh, LMF1 / RFU, IPO11 / Fold change vs veh, IPO11 / RFU, DFFB / Fold change vs veh, DFFB / RFU, FOXP1 / Fold change vs veh, FOXP1 / RFU, CARD8 / Fold change vs veh, CARD8 / RFU, STRN3 / Fold change vs veh, STRN3 / RFU, ADK / Fold change vs veh, ADK / RFU, RASSF2 / Fold change vs veh, RASSF2 / RFU, WIPF1 / Fold change vs veh, WIPF1 / RFU, LARP1B / Fold change vs veh, LARP1B / RFU, RASA1 / Fold change vs veh, RASA1 / RFU, RB1 / Fold change vs veh, RB1 / RFU, PPFIA1 / Fold change vs veh, PPFIA1 / RFU, MAT2A / Fold change vs veh, MAT2A / RFU, CCT5 / Fold change vs veh, CCT5 / RFU, WDR92 / Fold change vs veh, WDR92 / RFU, CUX1 / Fold change vs veh, CUX1 / RFU, TTC7A / Fold change vs veh, TTC7A / RFU, TMEM135 / Fold change vs veh, TMEM135 / RFU, DEPTOR / Fold change vs veh, DEPTOR / RFU, CPM / Fold change vs veh, CPM / RFU, DNAJB6 / Fold change vs veh, DNAJB6 / RFU, CACNA2D3 / Fold change vs veh, CACNA2D3 / RFU, DTX4 / Fold change vs veh, DTX4 / RFU, TFCP2 / Fold change vs veh, TFCP2 / RFU, GMCL1 /// GMCL1P1 / Fold change vs veh, GMCL1 /// GMCL1P1 / RFU, AEBP2 / Fold change vs veh, AEBP2 / RFU, SNHG1 /// SNORD22 /// SNORD25 /// SNORD26 /// SNORD27 /// SNORD28 /// SNORD29 /// SNORD31 / Fold change vs veh, SNHG1 /// SNORD22 /// SNORD25 /// SNORD26 /// SNORD27 /// SNORD28 /// SNORD29 /// SNORD31 / Fold change (Aza/veh), C12orf56 (ProbeSet 11735607_a_at) / Fold change (ACY-1035/veh), C12orf56 (ProbeSet 11735607_a_at) / Fold change (Aza/veh), FGFR1OP (ProbeSet 11751329_s_at) / Fold change (ACY-1035/veh), FGFR1OP (ProbeSet 11751329_s_at) / Fold change (Aza/veh), VPS36 (ProbeSet 11739960_a_at) / Fold change (ACY-1035/veh), VPS36 (ProbeSet 11739960_a_at) / RFU SYPL1 (11715823_x_at) / Fold change /veh SYPL1 (11715823_x_at) / RFU IGFBP7 (11715501_s_at) / Fold change /veh IGFBP7 (11715501_s_at) / RFU REEP3 (11722064_at) / Fold change /veh REEP3 (11722064_at) / RFU IGLL1 (11728026_x_at) / Fold change /veh IGLL1 (11728026_x_at): dose or concentration left out as unconfirmed
Details: ProbeSet 11722022_s_at; LIST D

Nc1ncn([C@@H]2O[C@H](CO)[C@@H](O)[C@H]2O)c(=O)n1 [azacitidine]
Fold change vs veh, CDK5R1: 0.77
